What all share (format): functional
In one experiment the test system is Aspergillus niger. As to the kind of experiment: Antifungal activity against Aspergillus niger assessed as reduction in fungal cell growth incubated for 72 hrs by broth microdilution method. For orientation: Broth dilution looks for growth in wells or tubes with falling amounts of substance.
A further experiment deals with Nakaseomyces glabratus. As to the kind of experiment: Antifungal activity against Candida glabrata assessed as reduction in fungal cell growth incubated for 48 hrs by broth microdilution method.
A further experiment relates to Candida tropicalis. As to the kind of experiment: Antifungal activity against Candida tropicalis assessed as reduction in fungal cell growth incubated for 48 hrs by broth microdilution method.
Another experiment relates to Candida parapsilosis. The experiment in a line: Antifungal activity against Candida parapsilosis ATCC 22019 assessed as reduction in fungal cell growth incubated for 48 hrs by broth microdilution method. To be noted: Lodderomyces parapsilosis, ATCC 22019, 48 h.
For another experiment, the system named is Cryptococcus neoformans. As to the kind of experiment: Antifungal activity against Cryptococcus neoformans LA314 assessed as reduction in fungal cell growth incubated for 48 hrs by broth microdilution method. As to conditions: LA314, 48 h.
Another experiment deals with Pichia kudriavzevii. The experiment in a line: Antifungal activity against Candida krusei assessed as reduction in fungal cell growth incubated for 48 hrs by broth microdilution method.
A further experiment relates to Candida albicans. As to the kind of experiment: Antifungal activity against Candida albicans assessed as reduction in fungal cell growth incubated for 48 hrs by broth microdilution method.

In brackets after ≈: the same amount, converted by molar mass.

What is called MIC is the smallest concentration in the dilution series that meets the test's criterion for growth inhibition.

For `OC(Cn1cncn1)(Cn1nnc(CCN2CCN(c3c(Cl)cccc3Cl)CC2)n1)c1ccc(F)cc1F` (stereo unspecified), the minimum inhibitory concentration (MIC) in the experiment with Aspergillus niger, in the experiment on Nakaseomyces glabratus, in the experiment on Candida tropicalis, in the experiment on Candida parapsilosis, with Cryptococcus neoformans and in the experiment on Pichia kudriavzevii was 1 to 16 µg/mL (≈ 1.77 to 28.3 µM) in each case. The MIC in the experiment with Candida albicans was 1 to 16 µg/mL (≈ 1.77 to 28.3 µM).

On to `OC(Cn1cncn1)(Cn1nnnc1CCN1CCN(C(c2ccccc2)c2ccccc2)CC1)c1ccc(F)cc1F` (stereo unspecified), for which the minimum inhibitory concentration (MIC) in the experiment with Aspergillus niger, in the experiment with Nakaseomyces glabratus, with Candida tropicalis, in the experiment on Candida parapsilosis, with Cryptococcus neoformans and in the experiment with Pichia kudriavzevii was 0.5 to 16 µg/mL (≈ 0.854 to 27.3 µM) each time. For the same molecule, the MIC with Candida albicans lay in the range of 0.5 to 16 µg/mL (≈ 0.854 to 27.3 µM).

For `OC(Cn1cncn1)(Cn1nnnc1CCN1CCN(c2cccc(C(F)(F)F)c2)CC1)c1ccc(F)cc1F` (stereo unspecified), the MIC in the experiment on Aspergillus niger, with Nakaseomyces glabratus, in the experiment on Candida tropicalis, with Candida parapsilosis, in the experiment with Cryptococcus neoformans and with Pichia kudriavzevii was 0.5 to 16 µg/mL (≈ 0.887 to 28.4 µM) in each case. The MIC with Candida albicans was 0.5 to 16 µg/mL (≈ 0.887 to 28.4 µM).

`C[C@H](n1nnnc1CCN1CCN(c2ccc(F)cc2)CC1)[C@](O)(Cn1cncn1)c1ccc(F)cc1F`: the MIC in the experiment on Aspergillus niger, in the experiment with Nakaseomyces glabratus, with Candida tropicalis, in the experiment with Candida parapsilosis, in the experiment with Cryptococcus neoformans and with Pichia kudriavzevii was 0.12 to 16 µg/mL (≈ 0.227 to 30.3 µM) each time. In addition, the minimal inhibitory concentration (MIC) with Candida albicans fell in the range of 0.12 to 16 µg/mL (≈ 0.227 to 30.3 µM).

`OC(Cn1cncn1)(Cn1nnnc1CCN1CCN(c2ccc(Cl)cc2)CC1)c1ccc(F)cc1F` (stereo unspecified): the minimum inhibitory concentration (MIC) in the experiment with Aspergillus niger, in the experiment on Nakaseomyces glabratus, in the experiment on Candida tropicalis, in the experiment with Candida parapsilosis, with Cryptococcus neoformans and with Pichia kudriavzevii was 0.5 to 16 µg/mL (≈ 0.943 to 30.2 µM) in each case. Moreover, the MIC in the experiment with Candida albicans lay in the range of 0.5 to 16 µg/mL (≈ 0.943 to 30.2 µM).

As for `CC(n1nnnc1CCN1CCN(c2cccc(C(F)(F)F)c2)CC1)C(O)(Cn1cncn1)c1ccc(F)cc1F` (stereo unspecified), the MIC with Aspergillus niger, with Nakaseomyces glabratus, in the experiment on Candida tropicalis, with Candida parapsilosis, in the experiment on Cryptococcus neoformans and with Pichia kudriavzevii was 0.5 to 16 µg/mL (≈ 0.866 to 27.7 µM) in each case. Besides, in the experiment on Candida albicans, the MIC fell in the range of 0.5 to 16 µg/mL (≈ 0.866 to 27.7 µM).

Consider `OC(Cn1cncn1)(Cn1nnc(CCN2CCN(c3ccccn3)CC2)n1)c1ccc(F)cc1F` (stereo unspecified), for which the minimum inhibitory concentration (MIC) in the experiment with Aspergillus niger, in the experiment on Nakaseomyces glabratus, in the experiment with Candida tropicalis, in the experiment on Candida parapsilosis, with Cryptococcus neoformans and in the experiment with Pichia kudriavzevii was 1 to 16 µg/mL (≈ 2.01 to 32.2 µM) each time. Further, the minimal inhibitory concentration (MIC) in the experiment with Candida albicans is 1 to 16 µg/mL (≈ 2.01 to 32.2 µM).

With `COc1ccccc1N1CCN(CCc2nnn(CC(O)(Cn3cncn3)c3ccc(F)cc3F)n2)CC1` (stereo unspecified), the minimal inhibitory concentration (MIC) in the experiment on Aspergillus niger, in the experiment on Nakaseomyces glabratus, with Candida tropicalis, in the experiment with Candida parapsilosis, in the experiment on Cryptococcus neoformans and in the experiment with Pichia kudriavzevii was 1 to 16 µg/mL (≈ 1.9 to 30.4 µM) throughout. Besides, in the experiment on Candida albicans, the minimal inhibitory concentration (MIC) is 1 to 16 µg/mL (≈ 1.9 to 30.4 µM).

Turning to `CC(n1nnc(CCN2CCN(Cc3ccccc3)CC2)n1)C(O)(Cn1cncn1)c1ccc(F)cc1F` (stereo unspecified), the MIC in the experiment with Aspergillus niger, in the experiment on Nakaseomyces glabratus, with Candida tropicalis, with Candida parapsilosis, in the experiment with Cryptococcus neoformans and in the experiment with Pichia kudriavzevii was 1 to 16 µg/mL (≈ 1.91 to 30.6 µM) in each case. Further, in the experiment with Candida albicans, the MIC was in the range of 1 to 16 µg/mL (≈ 1.91 to 30.6 µM).

Turning to `C[C@H](n1nnc(CCN2CCN(C(c3ccccc3)c3ccccc3)CC2)n1)[C@](O)(Cn1cncn1)c1ccc(F)cc1F`, the minimal inhibitory concentration (MIC) with Aspergillus niger, in the experiment on Nakaseomyces glabratus, in the experiment with Candida tropicalis, in the experiment on Candida parapsilosis, with Cryptococcus neoformans and with Pichia kudriavzevii was 0.25 to 16 µg/mL (≈ 0.417 to 26.7 µM) each time. For the same molecule, the MIC in the experiment with Candida albicans lay in the range of 0.25 to 16 µg/mL (≈ 0.417 to 26.7 µM).

Regarding `C[C@H](n1nnc(CCN2CCN(c3ccc(F)cc3)CC2)n1)[C@](O)(Cn1cncn1)c1ccc(F)cc1F`, the MIC in the experiment on Aspergillus niger, with Nakaseomyces glabratus, in the experiment on Candida tropicalis, in the experiment on Candida parapsilosis, with Cryptococcus neoformans and in the experiment with Pichia kudriavzevii was 0.25 to 16 µg/mL (≈ 0.474 to 30.3 µM) in each case. Moreover, the minimal inhibitory concentration (MIC) with Candida albicans lay within 0.25 to 16 µg/mL (≈ 0.474 to 30.3 µM).

With `CCCCOc1ccccc1N1CCN(CCc2nnn(CC(O)(Cn3cncn3)c3ccc(F)cc3F)n2)CC1` (stereo unspecified), the MIC in the experiment with Aspergillus niger, in the experiment on Nakaseomyces glabratus, in the experiment on Candida tropicalis, in the experiment on Candida parapsilosis, with Cryptococcus neoformans and with Pichia kudriavzevii was 1 to 16 µg/mL (≈ 1.76 to 28.2 µM) each time. Also, the MIC with Candida albicans fell in the range of 1 to 16 µg/mL (≈ 1.76 to 28.2 µM).

As to `OC(Cn1cncn1)(Cn1nnnc1CCN1CCN(c2ccccc2Cl)CC1)c1ccc(F)cc1F` (stereo unspecified), the MIC in the experiment with Aspergillus niger, in the experiment on Nakaseomyces glabratus, with Candida tropicalis, in the experiment on Candida parapsilosis, in the experiment on Cryptococcus neoformans and in the experiment on Pichia kudriavzevii was 0.5 to 16 µg/mL (≈ 0.943 to 30.2 µM) in each case. Also, the MIC in the experiment on Candida albicans fell in the range of 0.5 to 16 µg/mL (≈ 0.943 to 30.2 µM).

Source of the values: ChEMBL document CHEMBL4393657, “Tetrazole hybrids and their antifungal activities” (2019).
